Results from US10202349B2, “Asymmetric bis-acridines with antitumour activity and their uses” (POLITECHNIKA GDAŃSKA, priority 2015, dated 2019).

Legend:
PANC 1 = assay: Anti-neoplasmic activity against xenograft in hairless mice; type: in vivo
Procedure: (§1) For this, we selected 26 bis-acridines, mainly on the basis of the cytotoxic activity. We performed 34 series of experiments evaluating the anti-neoplasmic activity on xenografts in hairless mice against eleven neoplasms of human origin from the determination of the cytotoxic activity of bis-acridines (table 4). The tumours were injected subcutaneously to hairless mice of 5-weeks, female Crl:Nu-Foxnlnu, at a rate of 5×10^6 cells per mouse. After attaining a tumour of about 100 mm^3 or 200 mm^3 in depending on the neoplasm and its take this was 8 or even 30 days, and began therapy. On the day therapy was initiated, we randomised the animals and divided them into groups. Test groups were from 6 to 8 animals, and controls had from 8 to 14 animals. Each compound was tested at three differentiated doses.
(§2) The preparations were administered intravenously (i.v.) twice weekly for 4 weeks (thrice weekly for rapidly growing neoplasms). In several series, we used intraperitoneally (i.p.) administration in the same scheme. […] The therapeutic efficacy of the tested formulations was evaluated by measuring tumour size (length and width measurements of the tumour on the basis of the calculated tumour volume). Tumours were measured twice weekly for a period of about 30 days for fast-growing neoplasms, as well as about 60 days for the slow-growing neoplasms. The tumour volume in the treated groups compared with the control group. On this basis, inhibition of tumour growth was calculated using the following formula: Tumour growth inhibition TGI [%]=100−(ΔVT/ΔVC×100) Where ΔVT—is mean the tumour volume in animals in the group treated at the given day of treatment, minus the mean tumour volume in animals at the date of commencement of therapy. ΔVC is mean tumour volume in animals in the control group on a given day of treatment minus the average tumour volume of animals on the date of commencement of therapy. The results of the tests of anti-neoplasmic activity conducted in xenografts of human-origin neoplasms in mice are shown in Table 5.
(§3) The result above was accepted only in the case that the dose administered in all animals or more than half of the animals that survived to the end of the experiment. In addition, the evaluation was the day that the administration of the preparation was already completed: for the fast-growing neoplasms (eg. HCT116) this was in the days from 15 to 26, while for slow-growing neoplasms (eg. Panc 1) on a day from 34 to 60. […] In addition, the maximum inhibition of neoplasms could be identified in the day, in which there were no factors that could change the value TGI value.
(§4) Such factors may include: a significant decrease in body weight, the appearance of observable toxaemia, excessive rate of tumour growth: tumours in excess of 2000 mm^3 and all animals alive on that day.

DU 145 = assay: as above; type: in vivo; details: single 8 mg/kg
Procedure: as §1, §2, §3, §4

H 460 = assay: as above; type: in vivo
Procedure: as §1, §2, §3, §4

HT-29 = assay: Cytotoxic activity in vitro, SRB; type: cell-based, human
Procedure: (§5) Cytotoxic activity tests in-vitro. A measure of the cytotoxic activity of bis-acridines are the EC50 (concentration of studied compounds at which 50% inhibition of proliferation of tumorous is observed) of the evaluated compounds that inhibit the growth of 50% of cells in relation to a control. The cytotoxic activity of the compounds was determined using SRB, recommended by the US National Cancer Institute (USA). As the spectrum of 13 human origin neoplasms in bis-acridine screening studies, we used the following: HT 29 [CRC], HCT 116 [CRC], H 460 [lung cancer], MDA MB 231 [breast cancer], MCF-7 [breast cancer], UM UC3 [bladder cancer], PC 3 [prostate cancer], DU 145 [ prostate cancer], Panc-1 [pancreatic cancer], Mia Pa Ca 2 [pancreatic cancer], BXPC 3 [pancreatic cancer], AsPC1 [pancreatic cancer], Capan-2 [pancreatic cancer]. […] The DU-145 results were substantially a basis for selecting compounds and neoplasms for screening. The next neoplasms most sensitive to the cytotoxic activity of bis-acridines was the CRC HCT-116, as well as breast cancer MBA-MB-231. […] The cytotoxic activity of the remaining bis-acridines is significant or high (EC50 in the range from 1 to 0.04 μM). […] Panc-1, MiaPaCa-2 and Capan-2 are more sensitive, whereas for AsPC-1 and BxPC-3 this activity is at least an order of magnitude smaller.

MiaPaCa-2 = assay: Cytotoxic activity in vitro, SRB; type: cell-based, human
Procedure: as §5

H-460 = assay: Cytotoxic activity in vitro, SRB; type: cell-based, human
Procedure: as §5

HCT-116 = assay: Cytotoxic activity in vitro, SRB; type: cell-based, human
Procedure: as §5

MDA-MB-231 = assay: Cytotoxic activity in vitro, SRB; type: cell-based, human
Procedure: as §5

DU-145 = assay: Cytotoxic activity in vitro, SRB; type: cell-based, human
Procedure: as §5

BxPC-3 = assay: Cytotoxic activity in vitro, SRB; type: cell-based, human
Procedure: as §5

PANC-1 = assay: Cytotoxic activity in vitro, SRB; type: cell-based, human
Procedure: as §5

Capan-2 = assay: Cytotoxic activity in vitro, SRB; type: cell-based, human
Procedure: as §5

MCF-7 = assay: Cytotoxic activity in vitro, SRB; type: cell-based, human
Procedure: as §5

AsPC-1 = assay: Cytotoxic activity in vitro, SRB; type: cell-based, human
Procedure: as §5

UM-UC-3 = assay: Cytotoxic activity in vitro, SRB; type: cell-based, human
Procedure: as §5

PC-3 = assay: Cytotoxic activity in vitro, SRB; type: cell-based, human
Procedure: as §5

HCT 116 = assay: Anti-neoplasmic activity against xenograft in hairless mice; type: in vivo; details: series 8, i.p., day 23
Procedure: as §1, §2, §3, §4

BXPC 3 = assay: as above; type: in vivo; details: series 25, i.v., single 20 mg/kg, total 160 mg/kg, day 29
Procedure: as §1, §2, §3, §4

Compound	EC50 (HT-29) [nM]	EC50 (MiaPaCa-2) [nM]	EC50 (H-460) [nM]	EC50 (HCT-116) [nM]	EC50 (MDA-MB-231) [nM]	EC50 (DU-145) [nM]	EC50 (BxPC-3) [nM]	EC50 (PANC-1) [nM]	EC50 (MCF-7) [nM]	EC50 (AsPC-1) [nM]	EC50 (UM-UC-3) [nM]	further results
Cc1ccc([N+](=O)[O-])c2c(NCCCN3CCN(CCCNc4ccc(C)c5[nH]c6ccccc6c(=O)c45)CC3)c3ccccc3nc12 [C-2017, 1-[3-(4-methyl-9(10H)-acridono-1-yl)aminopropyl]-1-[3′-(4′-methyl-1′-nitroacridin-1-yl)-aminopropyl]piperazine]	61	67	40	47	48	46	–	–	–	–	–	TGI [%] [100 − (ΔVT/ΔVC × 100] (PANC 1; series 31, i.v., single 15 mg/kg, total 120 mg/kg, day 51): 75%; TGI [%] [100 − (ΔVT/ΔVC × 100] (DU 145; series 2, i.p., total 48 mg/kg, day 35): 25%; TGI [%] [100 − (ΔVT/ΔVC × 100] (H 460; series 5, i.p., single 5 mg/kg, total 30 mg/kg, day 14): 6%
CN(CCCNc1c2ccccc2nc2cccc([N+](=O)[O-])c12)CCCNc1ccc2ncn3c4ccc(O)cc4c(=O)c1c23 [C-2042, 9-{N-[(8-hydroxyimidazo[4,5,1-de]-acridin-6-on-5-yl)aminopropyl]-N-methylaminopropylamino}-1′-nitroacridine]	–	47	–	18	18	21	81	55	49	82	–	TGI [%] [100 − (ΔVT/ΔVC × 100] (PANC 1; series 17, i.v., single 4 mg/kg, total 20 mg/kg, day 39, *at least half of animals did not survive): 33* %; EC50 (Capan-2): 29 nM
Cc1ccc(NCCNCCNc2c3ccccc3nc3cccc([N+](=O)[O-])c23)c2c(=O)c3ccccc3[nH]c12 [C-1965, 9-{N-[(4-methyl-9(10H)-acridono-1-yl)aminoethyl]ethylamino}-1′-nitroacridine]	138	–	–	–	137	243	–	212	–	–	–	TGI [%] [100 − (ΔVT/ΔVC × 100] (DU 145; series 1, i.p., total 40 mg/kg, day 35, *at least half of animals did not survive): 61* %
Cc1ccc([N+](=O)[O-])c2c(NCCCN3CCN(CCCNc4ccc([N+](=O)[O-])c5[nH]c6ccccc6c(=O)c45)CC3)c3ccccc3nc12 [C-2030, 1-[3-(4-nitro-9(10H)-acridono-1-yl)aminopropyl]-4-[3′-(4′-methyl-1′-nitroacridin-1-yl)-aminopropyl]piperazine]	–	108	40	83	–	41	–	130	–	–	63	TGI [%] [100 − (ΔVT/ΔVC × 100] (H 460; series 6, i.v., single 10 mg/kg, total 60 mg/kg, day 17, *at least half of animals did not survive): 24* %; EC50 (PC-3): 362 nM
CN(CCCNc1c2ccccc2nc2cccc([N+](=O)[O-])c12)CCCNc1ccc([N+](=O)[O-])c2[nH]c3ccccc3c(=O)c12 [C-2026, 9-{N-[(4-nitro-9(10H)acridono-1-yl)aminopropyl]-N-methylaminopropylamino}-1′-nitroacridine]	67	103	10	260	28	24	–	28	695	66	29	TGI [%] [100 − (ΔVT/ΔVC × 100] (H 460; series 16, i.v., single 1 mg/kg, total 5 mg/kg, day 15): 14%; TGI [%] [100 − (ΔVT/ΔVC × 100] (H 460; series 16, i.v., single 4 mg/kg, total 16 mg/kg, day 14, *at least half of animals did not survive): 35* %; EC50 (PC-3): 51 nM
Cc1ccc([N+](=O)[O-])c2c(NCCCN(C)CCCNc3ccc([N+](=O)[O-])c4[nH]c5ccccc5c(=O)c34)c3ccccc3nc12 [C-2029, 9-{N-[(4-nitro-9(10H)acridono-1-yl)aminopropyl]-N-methylaminopropylamino}-4′-methyl-1′-nitroacridine]	230	–	55	74	–	44	–	110	–	–	54	TGI [%] [100 − (ΔVT/ΔVC × 100] (HCT 116; single 20 mg/kg, total 100 mg/kg): 52%
O=c1c2ccccc2[nH]c2c([N+](=O)[O-])ccc(NCCNCCNCCNc3c4ccccc4nc4cccc([N+](=O)[O-])c34)c12 [C-2033, 9-[N-(4-nitro-9(10H)acridono-1-yl)-aminoethylaminoethylamino-ethylamino]-1′-nitroacridine]	–	48	–	19	32	10	–	38	72	–	15	TGI [%] [100 − (ΔVT/ΔVC × 100] (HCT 116; single 3 mg/kg, total 21 mg/kg): 37%; EC50 (PC-3): 32 nM
Cc1ccc([N+](=O)[O-])c2c(NCCCN3CCN(CCCNc4ccc5ncn6c7ccccc7c(=O)c4c56)CC3)c3ccccc3nc12 [C-2050, 1-[3-(imidazo[4,5,1-de]-acridin-6-on-5-yl)aminopropyl]-4-[3′-(4′-methyl-1′-nitroacridin-1-yl)-aminopropyl]piperazine]	–	58	–	45	–	62	351	65	–	240	–	TGI [%] [100 − (ΔVT/ΔVC × 100] (PANC 1; series 24, i.v., single 20 mg/kg, total 160 mg/kg, day 50): 64%; TGI [%] [100 − (ΔVT/ΔVC × 100] (PANC 1; series 26, i.v., single 30 mg/kg, total 160 mg/kg, day 40): 64%; TGI [%] [100 − (ΔVT/ΔVC × 100] (BXPC 3): 40%
O=c1c2ccccc2n2cnc3ccc(NCCNCCNCCNc4c5ccccc5nc5cccc([N+](=O)[O-])c45)c1c32 [C-2037]	–	64	–	102	27	40	138	37	82	86	–	TGI [%] [100 − (ΔVT/ΔVC × 100] (PANC 1; series 17, i.v., single 4 mg/kg, total 16 mg/kg, day 39): 60%; EC50 (Capan-2): 44 nM
1-[3-(8-hydroxy-methylimidazo[4,5,1-de]-acridin-6-on-5-yl)aminopropyl]-4-[3′-(1′-nitroacridin-1-yl)-aminopropyl]piperazine [C-2051]	–	18	–	27	–	24	152	39	–	151	–	TGI [%] [100 − (ΔVT/ΔVC × 100] (PANC 1; series 27, i.v., single 2 mg/kg, total 16 mg/kg, day 40, *at least half of animals did not survive): 68* %
Cc1ccc([N+](=O)[O-])c2c(NCCCNCCCNc3ccc(C)c4[nH]c5ccccc5c(=O)c34)c3ccccc3nc12 [C-2022, 9-{N-[(4-methyl-9(10H)-acridono-1-yl)aminopropyl]propylamino}-4′-methyl-1′-nitroacridine]	1300	–	67	85	–	129	–	162	–	–	105	TGI [%] [100 − (ΔVT/ΔVC × 100] (H 460; series 5, i.p., single 10 mg/kg, total 60 mg/kg, day 14): 25%
